Measured values reported in US5204351A, “6-fluoro-3,5-dihydroxy carboxylic acids and derivatives thereof” (Hoechst Aktiengesellschaft, priority 1988, dated 1993).

How the values were obtained:
[1] = tested on: cholesterol; settings: rats; cited from earlier work
[2] = target: T1, HMG-CoA reductase (Rattus norvegicus, UniProt P51639); experiment: HMG CoA reductase activity in enzyme preparations (solubilized enzyme preparations from liver microsomes of cholestyramine-induced rats, 14C-HMG-CoA substrate); format: biochemical; settings: solubilized rat liver microsomal enzyme; mean of 3 parallel samples; Table 1; read-out: IC50 for inhibition of HMG-CoA reductase
T1 construct: solubilized enzyme preparations from liver microsomes from rats; from tissue; host or cells: liver microsomes of cholestyramine-induced rats
T1 sequence (P51639 1-887): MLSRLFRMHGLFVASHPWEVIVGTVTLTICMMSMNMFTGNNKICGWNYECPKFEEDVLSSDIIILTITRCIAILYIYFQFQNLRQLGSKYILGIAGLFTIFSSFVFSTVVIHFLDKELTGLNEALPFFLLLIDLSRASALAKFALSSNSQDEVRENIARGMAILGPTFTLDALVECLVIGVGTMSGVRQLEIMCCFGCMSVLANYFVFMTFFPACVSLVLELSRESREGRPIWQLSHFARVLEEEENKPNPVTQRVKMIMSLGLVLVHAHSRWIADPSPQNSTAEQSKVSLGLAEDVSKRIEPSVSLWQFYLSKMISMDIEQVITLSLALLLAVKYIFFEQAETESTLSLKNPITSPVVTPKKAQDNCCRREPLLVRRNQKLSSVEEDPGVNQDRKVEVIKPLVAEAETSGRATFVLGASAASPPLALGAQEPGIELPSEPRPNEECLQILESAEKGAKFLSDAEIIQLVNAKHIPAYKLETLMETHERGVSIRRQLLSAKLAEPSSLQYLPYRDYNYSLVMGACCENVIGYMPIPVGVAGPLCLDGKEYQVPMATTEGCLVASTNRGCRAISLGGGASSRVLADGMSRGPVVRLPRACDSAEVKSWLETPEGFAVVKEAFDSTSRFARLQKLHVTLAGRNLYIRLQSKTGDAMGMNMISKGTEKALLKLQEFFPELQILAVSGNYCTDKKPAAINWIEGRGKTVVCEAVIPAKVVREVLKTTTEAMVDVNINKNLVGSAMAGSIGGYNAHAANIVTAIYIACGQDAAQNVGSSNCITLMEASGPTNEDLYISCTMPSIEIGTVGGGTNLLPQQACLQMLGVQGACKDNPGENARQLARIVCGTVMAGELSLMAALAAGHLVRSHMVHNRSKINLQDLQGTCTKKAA
Description: 1. HMG CoA reductase activity in enzyme preparations
The HMG-CoA reductase activity was measured on solubilized enzyme preparations from liver microsomes from rats which, after a changeover in the day/night rhythm, had been induced with cholestyramine (®Cuemid).
The substrate used was (S,R) ^14 C-HMG-CoA, and the concentration of NADPH was maintained constant during the incubation by a regenerating system. ^14 C-Mevalonate was separated from the substrate and other products (e.g. ^14 C-HMG) by column elution, with the elution profile of each individual sample being determined.
Permanent inclusion of ^3 H-mevalonate was dispensed with because the determination was for relative data on the inhibitory effect. In each test series the enzyme-free control, the enzyme-containing normal mixture (=100%) and those with added product, final concentration 10^-5 to 10^-9 M, were treated together. Each individual value was formed as the mean of 3 parallel samples. The significance of the differences between means for product-free and product-containing samples was assessed using the t test.
The method described above was used to measure, for example, the following figures for the inhibition of HMG-CoA reductase by the compounds according to the invention [IC50 /mol/liter means the molar concentration of the compound per liter necessary for 50% inhibition]: […]

[3] = tested on: cholesterol biosynthesis (in HEP-G2 cells); experiment: Suppression or inhibition of HMG-CoA reductase in cell cultures of HEP-G2 cells: inhibition of cholesterol biosynthesis from 14C-acetate; format: cell-based; settings: Homo sapiens, HepG2, monolayers, e.g. 1 hour preincubation, 3 hours with sodium 14C-acetate, Table 2
Description: 2. Suppression or inhibition of HMG-CoA reductase in cell cultures of HEP-G2 cells
Monolayers of HEP-G2 cells in the lipoprotein-free nutrient medium were preincubated with appropriate concentrations of the test substances for a defined time (for example 1 hour) and, after addition of the labeled precursor, for example sodium ^14 C-acetate, the incubation was continued (for example for 3 hours). An internal standard (^3 H-cholesterol) was added and then a portion of the cells underwent alkaline hydrolysis. The lipids from the hydrolyzed cells were extracted with chloroform/methanol. After addition of carrier cholesterol to this lipid mixture it was subjected to preparative thin-layer chromatography, the cholesterol band was visualized with iodine vapor and then isolated, and the amount of ^14 C-cholesterol formed from the ^14 C-precursor was determined by scintigraphy. Cell protein was determined in an aliquot of the cells so that it is possible to calculate the amount of ^14 C-cholesterol formed per unit time and per mg of cell protein. The inhibitory effect of the particular test product on the cholesterol biosynthesis by HEP-G2 cell cultures was obtained by comparing this figure with the amount of ^14 C-cholesterol formed per mg of cell protein and unit time in a culture treated in the same way but free of test substance.
Examination of substances for inhibition of cholesterol biosynthesis
in confluent cell cultures (monolayers) of HEP-G2 cells
The method described above was used to measure, for example, the following figures for the inhibition of cholesterol biosynthesis (in HEP-G2 cells) by the compounds according to the invention (the IC50 /mol/liter is that concentration of the compound which brings about 50% inhibition of cholesterol biosynthesis) (Tab. 2).

Row | Structure (SMILES) | IC50 [2] [nM] | cholesterol-lowering action [1] | IC50 [3] [nM]
1 | CC(O)(CC(=O)O)CC(=O)O [3-Hydroxy-3-methylglutaric acid] |  | significant cholesterol-lowering action | 
2 | CC(C)c1nc(-c2ccc(F)cc2)nc(-c2ccc(F)cc2)c1/C=C(\F)[C@@H]1C[C@@H](O)CC(=O)O1 [10 a] | 2.9 |  | 19
3 | CC(C)c1nc(-c2ccc(F)cc2)nc(-c2ccc(F)cc2)c1C=C(F)C(O)CC(O)CC(=O)O (stereo not drawn) [11 a] |  |  | 18
4 | CC(C)c1nc(-c2ccccc2)cc(-c2ccc(F)cc2)c1/C=C(\F)[C@@H](O)C[C@@H](O)CC(=O)O [11 b] |  |  | 20

Further lines, with some results ahead:

Row | IC50 [2] [nM] | Structure (SMILES) | cholesterol-lowering action [1] | IC50 [3] [nM]
5 | 9 | CC(C)c1nc(-c2ccccc2)cc(-c2ccc(F)cc2)c1/C=C(\F)[C@@H]1C[C@@H](O)CC(=O)O1 [10 b] |  | 4.6
6 | 1.8 | CC(C)c1nc(-c2ccc(F)cc2)c(/C=C(\F)[C@@H]2C[C@@H](O)CC(=O)O2)c(C(C)C)n1 [10 g] |  | 2.5
